Source: patent US8952024B2, “Herbicidal pyrimidone derivatives” (E I du Pont de Nemours and Company, priority 2009, dated 2015)
Like-named read-outs stand apart in the source and are kept apart here.

What was measured:
Assay in all cases: Test B pre-/postemergence plant response
Assay type in all cases: in vivo
[1] = test system: large crabgrass (Digitaria sanguinalis); details: Preemergence
Outline: (§1)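 Visual injury, 0–100 scale (100 = complete control), rated against controls after 13 to 15 days in greenhouse. Pre-emergence: seeds in loam/sand soil, treated at planting. Post-emergence: 1- to 4-leaf plants (2 to 18 cm) in peat/vermiculite medium. Compounds formulated in non-phytotoxic solvent with surfactant.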

[2] = test system: wheat (Triticum aestivum); details: for plant injury at 31 g/ha: 31 g ai/ha; for plant injury at 62 g/ha: 62 g ai/ha; for plant injury at 125 g/ha: 125 g ai/ha
Outline: as §1

[3] = test system: green foxtail (Setaria viridis); details: for pest or weed control at 31 g/ha: 31 g ai/ha; for pest or weed control at 62 g/ha: 62 g ai/ha; for pest or weed control at 125 g/ha: 125 g ai/ha
Outline: as §1

[4] = test system: yellow nutsedge (Cyperus esculentus); details: for pest or weed control at 31 g/ha: 31 g ai/ha; for pest or weed control at 62 g/ha: 62 g ai/ha; for pest or weed control at 125 g/ha: 125 g ai/ha
Outline: as §1

[5] = test system: giant foxtail (Setaria faberii); details: for pest or weed control at 31 g/ha: 31 g ai/ha; for pest or weed control at 62 g/ha: 62 g ai/ha; for pest or weed control at 125 g/ha: 125 g ai/ha
Outline: as §1

[6] = test system: johnsongrass (Sorghum halepense); details: for pest or weed control at 31 g/ha: 31 g ai/ha; for pest or weed control at 62 g/ha: 62 g ai/ha; for pest or weed control at 125 g/ha: 125 g ai/ha
Outline: as §1

[7] = test system: lambsquarters (Chenopodium album); details: for pest or weed control at 31 g/ha: 31 g ai/ha; for pest or weed control at 62 g/ha: 62 g ai/ha; for pest or weed control at 125 g/ha: 125 g ai/ha
Outline: as §1

[8] = Preemergence, 250 g ai/ha, 0 to 100 scale
[9] = Triticum aestivum, pre-emergence, Preemergence, scale 0 to 100 (0 no effect, 100 complete control), read-out: Plant response rating, Wheat
[10] = Setaria viridis, pre-emergence, Preemergence, scale 0 to 100 (0 no effect, 100 complete control), read-out: Plant response rating, Foxtail, Green
[11] = Cyperus, pre-emergence, Preemergence, scale 0 to 100 (0 no effect, 100 complete control), read-out: Plant response rating, Nutsedge, Yellow
[12] = Setaria faberi, pre-emergence, Preemergence, scale 0 to 100 (0 no effect, 100 complete control), read-out: Plant response rating, Foxtail, Giant
[13] = Sorghum halepense, pre-emergence, Preemergence, scale 0 to 100 (0 no effect, 100 complete control), read-out: Plant response rating, Johnsongrass
[14] = Chenopodium album, pre-emergence, Preemergence, scale 0 to 100 (0 no effect, 100 complete control), read-out: Plant response rating, Lambsquarters

COCCn1c(-c2cc(F)cc(F)c2)ncc(C(=O)C2=C(O)C3CCC(C3)C2=O)c1=O (stereo not shown) [Compound 243, 2-(3,5-difluorophenyl)-5-[(2-hydroxy-4-oxobicyclo[3.2.1]oct-2-en-3-yl)carbonyl]-3-(2-methoxyethyl)-4(3H)-pyrimidinone]
95: Nutsedge, Yellow plant response rating [4, 8] | Foxtail, Giant plant response rating [5, 8]
70: Wheat plant response rating [2, 8]
40%: plant injury at 62 g/ha [2, 9]
100: Crabgrass, Large plant response rating ([1]; 250 g ai/ha, 0 to 100 scale) | Foxtail, Green plant response rating [3, 8] | Johnsongrass plant response rating [6, 8] | Lambsquarters plant response rating [7, 8]
65%: pest or weed control at 31 g/ha ([4]; Cyperus, post-emergence, Postemergence, 0 to 100 scale (0 no effect, 100 complete control), read-out: Plant response rating, Nutsedge, Yellow) | pest or weed control at 62 g/ha ([4]; Cyperus, post-emergence, Postemergence, scale 0 to 100 (0 no effect, 100 complete control), read-out: Plant response rating, Nutsedge, Yellow) | pest or weed control at 31 g/ha [4, 11]
90%: pest or weed control at 125 g/ha ([4]; Cyperus, pre-emergence, Preemergence, scale 0 to 100, 0 no effect, 100 complete control, read-out: Plant response rating, Nutsedge, Yellow)
70%: plant injury at 125 g/ha ([2]; Triticum aestivum, pre-emergence, Preemergence, scale 0 to 100, 0 no effect, 100 complete control, read-out: Plant response rating, Wheat) | pest or weed control at 125 g/ha ([4]; Cyperus, post-emergence, Postemergence, scale 0 (no effect) to 100 (complete control), 13 to 15 days, read-out: Plant response rating, Nutsedge, Yellow) | pest or weed control at 31 g/ha [6, 13]
0%: plant injury at 31 g/ha [2, 9]
85%: plant injury at 31 g/ha ([2]; Triticum aestivum, post-emergence, Postemergence, 0 to 100 scale (0 no effect, 100 complete control), read-out: Plant response rating, Wheat) | pest or weed control at 250 g/ha ([4]; Cyperus, post-emergence, Postemergence, 250 g ai/ha, scale 0 to 100 (0 no effect, 100 complete control), 13 to 15 days, read-out: Plant response rating, Nutsedge, Yellow) | pest or weed control at 62 g/ha [5, 12]
95%: plant injury at 62 g/ha ([2]; Triticum aestivum, post-emergence, Postemergence, scale 0 to 100 (0 no effect, 100 complete control), read-out: Plant response rating, Wheat) | plant injury at 125 g/ha ([2]; Triticum aestivum, post-emergence, Postemergence, scale 0 (no effect) to 100 (complete control), 13 to 15 days, read-out: Plant response rating, Wheat) | pest or weed control at 31 g/ha ([5]; Setaria faberi, post-emergence, Postemergence, 0 to 100 scale (0 no effect, 100 complete control), read-out: Plant response rating, Foxtail, Giant) | pest or weed control at 62 g/ha ([5]; Setaria faberi, post-emergence, Postemergence, scale 0 to 100 (0 no effect, 100 complete control), read-out: Plant response rating, Foxtail, Giant) | pest or weed control at 125 g/ha ([5]; Setaria faberi, pre-emergence, Preemergence, scale 0 to 100, 0 no effect, 100 complete control, read-out: Plant response rating, Foxtail, Giant) | pest or weed control at 62 g/ha [6, 13] | pest or weed control at 125 g/ha ([6]; Sorghum halepense, pre-emergence, Preemergence, scale 0 to 100, 0 no effect, 100 complete control, read-out: Plant response rating, Johnsongrass)
55%: pest or weed control at 31 g/ha [5, 12]
35%: pest or weed control at 31 g/ha [3, 10]
100%: pest or weed control at 31 g/ha ([1]; Digitaria sanguinalis, pre-emergence, 31 g ai/ha, scale 0 to 100 (0 no effect, 100 complete control), read-out: Plant response rating, Crabgrass, Large) | pest or weed control at 62 g/ha ([1]; Digitaria sanguinalis, pre-emergence, 62 g ai/ha, scale 0 to 100 (0 no effect, 100 complete control), read-out: Plant response rating, Crabgrass, Large) | pest or weed control at 125 g/ha ([1]; Digitaria sanguinalis, pre-emergence, 125 g ai/ha, scale 0 to 100, 0 no effect, 100 complete control, read-out: Plant response rating, Crabgrass, Large) | plant injury at 250 g/ha ([2]; Triticum aestivum, post-emergence, Postemergence, 250 g ai/ha, scale 0 to 100 (0 no effect, 100 complete control), 13 to 15 days, read-out: Plant response rating, Wheat) | pest or weed control at 125 g/ha ([3]; Setaria viridis, post-emergence, Postemergence, scale 0 (no effect) to 100 (complete control), 13 to 15 days, read-out: Plant response rating, Foxtail, Green) | pest or weed control at 250 g/ha ([3]; Setaria viridis, post-emergence, Postemergence, 250 g ai/ha, scale 0 to 100 (0 no effect, 100 complete control), 13 to 15 days, read-out: Plant response rating, Foxtail, Green) | pest or weed control at 62 g/ha [3, 10] | pest or weed control at 125 g/ha ([3]; Setaria viridis, pre-emergence, Preemergence, scale 0 to 100, 0 no effect, 100 complete control, read-out: Plant response rating, Foxtail, Green) | pest or weed control at 31 g/ha ([6]; Sorghum halepense, post-emergence, Postemergence, 0 to 100 scale (0 no effect, 100 complete control), read-out: Plant response rating, Johnsongrass) | pest or weed control at 62 g/ha ([6]; Sorghum halepense, post-emergence, Postemergence, scale 0 to 100 (0 no effect, 100 complete control), read-out: Plant response rating, Johnsongrass) | pest or weed control at 125 g/ha ([6]; Sorghum halepense, post-emergence, Postemergence, scale 0 (no effect) to 100 (complete control), 13 to 15 days, read-out: Plant response rating, Johnsongrass) | pest or weed control at 250 g/ha ([6]; Sorghum halepense, post-emergence, Postemergence, 250 g ai/ha, scale 0 to 100 (0 no effect, 100 complete control), 13 to 15 days, read-out: Plant response rating, Johnsongrass) | pest or weed control at 31 g/ha ([7]; Chenopodium album, post-emergence, Postemergence, 0 to 100 scale (0 no effect, 100 complete control), read-out: Plant response rating, Lambsquarters) | pest or weed control at 62 g/ha ([7]; Chenopodium album, post-emergence, Postemergence, scale 0 to 100 (0 no effect, 100 complete control), read-out: Plant response rating, Lambsquarters) | pest or weed control at 125 g/ha ([7]; Chenopodium album, post-emergence, Postemergence, scale 0 (no effect) to 100 (complete control), 13 to 15 days, read-out: Plant response rating, Lambsquarters) | pest or weed control at 250 g/ha ([7]; Chenopodium album, post-emergence, Postemergence, 250 g ai/ha, scale 0 to 100 (0 no effect, 100 complete control), 13 to 15 days, read-out: Plant response rating, Lambsquarters) | pest or weed control at 31 g/ha [7, 14] | pest or weed control at 62 g/ha [7, 14] | pest or weed control at 125 g/ha ([7]; Chenopodium album, pre-emergence, Preemergence, scale 0 to 100, 0 no effect, 100 complete control, read-out: Plant response rating, Lambsquarters)
80%: pest or weed control at 62 g/ha [4, 11]
98%: pest or weed control at 31 g/ha ([3]; Setaria viridis, post-emergence, Postemergence, 0 to 100 scale (0 no effect, 100 complete control), read-out: Plant response rating, Foxtail, Green) | pest or weed control at 62 g/ha ([3]; Setaria viridis, post-emergence, Postemergence, scale 0 to 100 (0 no effect, 100 complete control), read-out: Plant response rating, Foxtail, Green) | pest or weed control at 125 g/ha ([5]; Setaria faberi, post-emergence, Postemergence, scale 0 (no effect) to 100 (complete control), 13 to 15 days, read-out: Plant response rating, Foxtail, Giant) | pest or weed control at 250 g/ha ([5]; Setaria faberi, post-emergence, Postemergence, 250 g ai/ha, scale 0 to 100 (0 no effect, 100 complete control), 13 to 15 days, read-out: Plant response rating, Foxtail, Giant)
